# Measurements: patent US12533350B2, “Use of melanocortin-1 receptor agonist” (TANABE PHARMA CORPORATION, priority 2022, dated 2026)
# Columns and labels:
# [1] = tested on: bleomycin (BLM)-induced systemic sclerosis (SSc) model: skin fibrosis and lung inflammation
# Method: The back of mice was shaved, and the middle of the back was marked with oil-based red ink. Phosphate-buffered saline (PBS) or BLM (Nippon Kayaku) (0.15 mg/0.1 mL per animal) was subcutaneously injected at the marked site once daily from day 0 to day 25. Compound A solutions at 0.1 mL/10 g of body weight were orally administered once daily (approximately 2 hours before the BLM injection) for 29 consecutive days from day 0 until the day before the end of evaluation (day 28).
# On day 29, mice were euthanized by inhalation anesthesia with isoflurane, and whole blood and back skin samples were collected. The left lung was dissected, weighed, and immersed in RNAlater solution (Qiagen). The collected blood was separated into serum. The injection site of skin was excised, weighed (wet weight) and immersed in 0.5 mol/L acetic acid solution containing 0.3 mg/mL pepsin to solubilize collagen. The collagen content of the solubilized sample was explored using the QuickZyme Soluble Collagen Assay kit (QuickZyme Biosciences), and absorbance was determined by a microplate reader (VERSAmax, Molecular Devices, LLC). Serum levels of surfactant protein D (SP-D) were assayed using the Rat/Mouse SP-D kit YAMASA EIA (Yamasa Corporation), and absorbance was determined by a microplate reader (VERSAmax, Molecular Devices, LLC). Total RNA of lungs was isolated using RNeasy 96 Universal Tissue Kit (Qiagen) according to the manufacturer's instructions. Real-time PCR was performed using the One Step SYBR PrimeScript PLUS RT-PCR Kit (Takara Bio Inc.) and ABI PRISM 7900HT Real Time PCR System (Applied Biosystems). Takara perfect real time primer pairs (Takara Bio Inc.) were used to analyze the gene expression of chemokine Cc12 (also named as monocyte chemotactic protein-1 (Mcp-1, MA066003)), interleukin-6 (IL-6, MA039013), and hypoxanthine phosphoribosyltransferase (Hprt, MA031262). Quantification was performed using the comparative CT (cycle threshold) method employing Hprt as the housekeeping gene. A serum concentration of endothelin 1 (ET-1) was assayed using Quantikine Endothelin-1 (R & D systems) and the absorbance was measured by the microplate reader (VERSAmax, Molecular Devices, LLC).
# Therefore, differences in body weight at each time point were analyzed between the PBS_vehicle and BLM_vehicle groups using Student's t test.
# [2] = tested on: serum proteins in BLM-induced SSc model; settings: Compound A 10 mg/kg
# Method: Serum samples were obtained from mice of the BLM-induced SSc model (therapeutic evaluation). Samples from the saline_vehicle (control group without disease), BLM_vehicle (control group with disease), BLM_Compound A (10 mg/kg), and BLM_imatinib (150 mg/kg) groups were used for analysis. Using a Luminex assay (R&D systems), 110 proteins were investigated (supplemental Table s1). Proteins satisfying any of the following criteria were analyzed: i) all samples were adequately measured within the quantitative range; ii) more than half of the samples in one or more groups were quantified, although some samples were out of the quantitative range.
# Using serum samples of mice to which 10 mg/kg of Compound A and 150 mg/kg of imatinib were administered, serum protein profiling was carried out in a BLM-induced SSc model (treatment model). Using a Luminex assay, 110 kinds of proteins were investigated.
# [3] = Compound A at ≥0.3 mg/kg orally once daily day 0-28, measured day 29
# [4] = Compound A at ≥0.3 mg/kg orally once daily day 0-28, measured day 29, relative to Hprt
compound,measurement,setting,value
"COC[C@H]1CN(C(=O)[C@]2(F)CN(C3CCCC3)C[C@H]2c2ccc(OC)cc2)C[C@@H]1c1ccc(C(F)(F)F)cc1N1CCC(C(=O)O)CC1 [Compound A, 1-{2-[(3S,4R)-1-{[(3R,4R)-1-cyclopentyl-3-fluoro-4-(4-methoxyphenyl)pyrrolidin-3-yl]carbonyl}-4-(methoxymethyl)pyrrolidin-3-yl]-5-(trifluoromethyl)phenyl}piperidine-4-carboxylic acid]",BLM-induced increase of collagen content of the skin,[1]; [3],inhibited significantly
same,BLM-induced increase of serum concentration of ET-1,[1]; [3],inhibited significantly
same,BLM-induced increase of serum level of SP-D,[1]; [3],inhibited significantly
same,BLM-induced increase of wet weight of the left lung,[1]; [3],inhibited significantly
same,BLM-induced increase of IL-6 mRNA expression in the lung,[1]; [4],inhibited significantly
same,BLM-induced increase of Mcp-1 mRNA expression in the lung,[1]; [4],inhibited significantly
same,BLM-induced decrease of body weight,"[1]; Compound A at ≥0.3 mg/kg orally once daily, day 0 to day 29",significantly improved
same,BLM-induced elevation of serum GDF-15,[2],significantly suppressed
same,BLM-induced elevation of serum MMP-2,[2],significantly suppressed
same,BLM-induced elevation of serum MMP-3,[2],significantly suppressed
same,BLM-induced elevation of serum P-selectin,[2],significantly suppressed
same,BLM-induced elevation of serum S100A9,[2],significantly suppressed
same,BLM-induced elevation of serum TIMP-1,[2],significantly suppressed
same,BLM-induced elevation of serum TNFRI,[2],significantly suppressed
same,BLM-induced elevation of serum TNFRII,[2],significantly suppressed
same,BLM-induced elevation of serum adiponectin,[2],significantly suppressed
same,BLM-induced elevation of serum cystatin C,[2],significantly suppressed
same,BLM-induced elevation of serum osteoprotegerin,[2],significantly suppressed
